Reference: article PMC8667935, “Synthesis and biological evaluation of celastrol derivatives as potent antitumor agents with STAT3 inhibition” (Journal of Enzyme Inhibition and Medicinal Chemistry, 2021)

Tests used:
STAT3 [1] = molecular target: T1, STAT3 (Homo sapiens, UniProt P40763); assay: SPR (Biacore T200, STAT3 amine-coupled to CM5 chip); type: binding
T1 construct: recombinant human STAT3 protein (rhSTAT3)

STAT3 [2] = molecular target: T1, STAT3; assay: SPR (Biacore T200, STAT3 amine-coupled to CM5 chip); positive control measured by the authors; type: binding

T1 sequence (P40763 2-770): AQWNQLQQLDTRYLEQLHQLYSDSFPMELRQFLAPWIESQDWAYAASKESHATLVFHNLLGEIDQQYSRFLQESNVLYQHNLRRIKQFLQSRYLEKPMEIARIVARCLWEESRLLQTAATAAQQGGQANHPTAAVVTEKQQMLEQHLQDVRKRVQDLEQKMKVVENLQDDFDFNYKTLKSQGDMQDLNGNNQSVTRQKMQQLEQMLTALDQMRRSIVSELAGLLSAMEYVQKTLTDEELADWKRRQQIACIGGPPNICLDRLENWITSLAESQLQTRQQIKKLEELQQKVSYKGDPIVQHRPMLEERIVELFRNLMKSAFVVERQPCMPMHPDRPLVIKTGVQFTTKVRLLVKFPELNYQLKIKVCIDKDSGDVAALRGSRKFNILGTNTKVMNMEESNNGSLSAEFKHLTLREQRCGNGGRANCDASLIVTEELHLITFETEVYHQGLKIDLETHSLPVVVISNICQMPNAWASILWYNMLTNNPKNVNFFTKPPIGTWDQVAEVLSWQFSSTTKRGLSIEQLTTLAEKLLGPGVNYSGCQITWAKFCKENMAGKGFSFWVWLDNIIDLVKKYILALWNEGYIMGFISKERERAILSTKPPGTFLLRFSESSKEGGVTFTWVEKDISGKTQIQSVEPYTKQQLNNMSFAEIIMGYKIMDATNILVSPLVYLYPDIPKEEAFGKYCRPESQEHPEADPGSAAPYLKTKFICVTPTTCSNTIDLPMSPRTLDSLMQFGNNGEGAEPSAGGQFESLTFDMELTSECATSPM

CC1=C(O)C(=O)C=C2C1=CC=C1[C@@]2(C)CC[C@@]2(C)[C@@H]3C[C@](C)(C(=O)NCCc4cccs4)CC[C@]3(C)CC[C@]12C [4m, 3-Hydroxy-9β,13α-dimethyl-2-oxo-24,25,26-trinoroleana-1(10),3,5,7-tetraen-29-oic acid 2–(2-thienyl) ethylamide]
Kd (STAT3 [1]): 45.3 µM

CC1=C(O)C(=O)C=C2C1=CC=C1[C@@]2(C)CC[C@@]2(C)[C@@H]3C[C@](C)(C(=O)O)CC[C@]3(C)CC[C@]12C [CEL, Celastrol]
Kd (STAT3 [2]): 60.4 µM
